Experimental data: ChEMBL document CHEMBL1127541, “3,4-Dihydro-3-amino-2H-1-benzopyran derivatives as 5-HT1A receptor ligands and potential anxiolytic agents. 1. Synthesis and structure--activity relationship studies” (J Med Chem, 1994)

Legend:
[1] = Inhibitory concentration of compound was tested as agonist activity against forskolin activated adenylate cyclase; format: functional
Mus musculus [2] = experiment: The in vivo compartmental activity was evaluated as minimum significant active dose measured by Drug discrimination test; format: functional
[3] = molecular target: T1, Alpha-1A adrenergic receptor (Bos taurus, UniProt P18130); experiment: Binding affinity against alpha-1 adrenergic receptor in calf frontal cortex; format: tissue-based
T1 sequence (P18130 whole entry): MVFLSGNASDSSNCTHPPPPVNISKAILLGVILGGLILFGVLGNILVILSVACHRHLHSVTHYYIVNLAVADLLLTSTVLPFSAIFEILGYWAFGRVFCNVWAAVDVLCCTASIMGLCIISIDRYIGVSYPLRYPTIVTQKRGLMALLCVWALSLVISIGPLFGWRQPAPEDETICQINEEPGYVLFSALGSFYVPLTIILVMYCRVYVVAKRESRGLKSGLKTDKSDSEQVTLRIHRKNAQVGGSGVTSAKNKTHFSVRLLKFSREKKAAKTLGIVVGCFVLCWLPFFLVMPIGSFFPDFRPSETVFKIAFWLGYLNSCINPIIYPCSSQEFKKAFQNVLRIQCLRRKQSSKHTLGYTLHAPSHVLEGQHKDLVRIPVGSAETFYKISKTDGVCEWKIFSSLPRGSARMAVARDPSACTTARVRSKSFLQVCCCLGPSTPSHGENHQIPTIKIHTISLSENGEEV

Mus musculus [4] = experiment: (§1) The in vivo compartmental activity was evaluated as minimum significant active dose measured by punishment test; format: functional
D(2) dopamine receptor = D(2) dopamine receptor (Bos taurus, UniProt P20288); experiment: Binding affinity against D2 receptor in calf caudate nucleus
D(2) dopamine receptor, sequence (P20288 whole entry): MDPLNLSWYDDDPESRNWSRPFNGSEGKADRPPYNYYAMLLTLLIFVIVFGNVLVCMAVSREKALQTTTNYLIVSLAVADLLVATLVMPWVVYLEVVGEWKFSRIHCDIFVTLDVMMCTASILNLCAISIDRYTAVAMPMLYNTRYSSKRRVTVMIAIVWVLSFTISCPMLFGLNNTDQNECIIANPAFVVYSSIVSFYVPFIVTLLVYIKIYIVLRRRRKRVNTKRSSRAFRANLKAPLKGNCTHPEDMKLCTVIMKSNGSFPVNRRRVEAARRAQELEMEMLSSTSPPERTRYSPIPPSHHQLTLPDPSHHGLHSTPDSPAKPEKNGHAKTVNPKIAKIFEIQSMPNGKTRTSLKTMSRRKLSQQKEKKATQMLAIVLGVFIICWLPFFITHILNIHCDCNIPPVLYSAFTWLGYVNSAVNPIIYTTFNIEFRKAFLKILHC

[5] = molecular target: 5-hydroxytryptamine receptor 1B (Rattus norvegicus, UniProt P28564); experiment: Binding affinity for 5-hydroxytryptamine 1B receptor in rat cortex, striatum and globus pallidus; format: tissue-based
5-hydroxytryptamine receptor 1B, sequence (P28564 whole entry): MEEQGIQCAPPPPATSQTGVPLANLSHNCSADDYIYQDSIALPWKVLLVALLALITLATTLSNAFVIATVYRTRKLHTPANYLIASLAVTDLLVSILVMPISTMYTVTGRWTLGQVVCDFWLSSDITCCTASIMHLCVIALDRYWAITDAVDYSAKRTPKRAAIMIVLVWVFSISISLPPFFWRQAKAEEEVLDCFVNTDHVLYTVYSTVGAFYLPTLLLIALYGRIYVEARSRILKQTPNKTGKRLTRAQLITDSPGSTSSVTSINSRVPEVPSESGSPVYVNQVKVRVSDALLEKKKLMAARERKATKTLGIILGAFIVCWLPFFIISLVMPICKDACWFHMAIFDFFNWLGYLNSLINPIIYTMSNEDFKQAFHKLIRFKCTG

[6] = molecular target: T2, 5-hydroxytryptamine receptor 1A (Rattus norvegicus, UniProt P19327); experiment: Binding affinity against 5-hydroxytryptamine 1A (5-HT1A) receptor in rat hippocampus membranes; format: cell membranes, Membrane
T2 sequence (P19327 whole entry): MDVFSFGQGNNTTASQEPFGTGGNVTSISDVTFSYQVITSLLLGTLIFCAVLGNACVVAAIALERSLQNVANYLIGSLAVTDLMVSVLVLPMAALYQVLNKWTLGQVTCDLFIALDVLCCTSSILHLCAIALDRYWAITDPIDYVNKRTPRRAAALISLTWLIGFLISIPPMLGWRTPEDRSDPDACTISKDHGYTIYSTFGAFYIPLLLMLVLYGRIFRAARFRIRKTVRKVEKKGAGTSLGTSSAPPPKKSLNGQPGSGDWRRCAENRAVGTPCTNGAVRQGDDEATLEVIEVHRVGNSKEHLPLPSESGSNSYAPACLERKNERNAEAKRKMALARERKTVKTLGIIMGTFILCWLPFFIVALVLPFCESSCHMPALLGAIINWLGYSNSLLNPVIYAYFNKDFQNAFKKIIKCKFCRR

[7] = molecular target: T3, Alpha-2A adrenergic receptor (Bos taurus, UniProt Q28838); experiment: Binding affinity against alpha-2 adrenergic receptor in calf frontal cortex; format: tissue-based
T3 sequence (Q28838 whole entry): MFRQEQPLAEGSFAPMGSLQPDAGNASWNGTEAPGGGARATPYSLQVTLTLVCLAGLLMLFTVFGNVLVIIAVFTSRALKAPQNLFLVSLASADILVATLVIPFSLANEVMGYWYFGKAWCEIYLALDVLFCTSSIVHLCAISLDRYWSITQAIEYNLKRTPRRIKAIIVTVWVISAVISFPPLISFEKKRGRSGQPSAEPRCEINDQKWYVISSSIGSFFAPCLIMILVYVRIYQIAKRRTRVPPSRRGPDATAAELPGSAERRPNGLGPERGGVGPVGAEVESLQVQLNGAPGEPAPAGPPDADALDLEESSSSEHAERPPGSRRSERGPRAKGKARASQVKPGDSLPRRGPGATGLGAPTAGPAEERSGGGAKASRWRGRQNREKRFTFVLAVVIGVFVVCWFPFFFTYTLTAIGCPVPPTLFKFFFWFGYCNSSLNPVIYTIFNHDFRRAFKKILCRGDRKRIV

Mus musculus [8] = experiment: The in vivo compartmental activity was evaluated as minimum significant active dose measured by Dark/light box test; format: functional
[9] = molecular target: 5-hydroxytryptamine receptor 2A (Bos taurus, UniProt Q75Z89); experiment: Binding affinity towards 5-hydroxytryptamine 2 receptor in calf frontal cortex; format: tissue-based
5-hydroxytryptamine receptor 2A, sequence (Q75Z89 whole entry): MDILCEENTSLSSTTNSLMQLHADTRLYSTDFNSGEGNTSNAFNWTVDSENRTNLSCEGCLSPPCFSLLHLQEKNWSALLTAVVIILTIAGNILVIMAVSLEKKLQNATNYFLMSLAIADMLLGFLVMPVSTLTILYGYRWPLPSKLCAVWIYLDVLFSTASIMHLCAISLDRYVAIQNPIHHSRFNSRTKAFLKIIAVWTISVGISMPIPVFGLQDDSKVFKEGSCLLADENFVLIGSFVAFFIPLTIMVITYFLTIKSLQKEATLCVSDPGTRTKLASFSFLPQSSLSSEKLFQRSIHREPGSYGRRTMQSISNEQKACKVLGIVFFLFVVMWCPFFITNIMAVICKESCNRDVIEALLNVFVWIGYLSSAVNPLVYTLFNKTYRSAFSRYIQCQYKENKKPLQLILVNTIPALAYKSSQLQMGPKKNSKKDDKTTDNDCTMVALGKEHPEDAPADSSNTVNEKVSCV

D(1A) dopamine receptor = D(1A) dopamine receptor (Bos taurus, UniProt Q95136); experiment: Binding affinity towards dopamine receptor D1 in calf striatum; format: tissue-based
D(1A) dopamine receptor, sequence (Q95136 whole entry): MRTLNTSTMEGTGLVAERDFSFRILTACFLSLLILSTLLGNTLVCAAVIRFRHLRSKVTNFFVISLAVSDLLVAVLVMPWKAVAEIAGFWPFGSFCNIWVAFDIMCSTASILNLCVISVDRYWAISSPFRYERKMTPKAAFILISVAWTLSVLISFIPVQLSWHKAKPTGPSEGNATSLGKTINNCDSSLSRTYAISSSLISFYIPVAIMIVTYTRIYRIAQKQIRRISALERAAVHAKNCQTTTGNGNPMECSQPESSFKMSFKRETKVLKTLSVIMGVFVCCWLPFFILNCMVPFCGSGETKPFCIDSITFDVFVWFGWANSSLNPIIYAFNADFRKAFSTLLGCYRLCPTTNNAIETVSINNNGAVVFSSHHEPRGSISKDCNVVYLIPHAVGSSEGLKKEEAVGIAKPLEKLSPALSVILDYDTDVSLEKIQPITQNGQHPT

Mus musculus [10] = experiment: The in vivo compartmental activity was evaluated as minimum significant active dose measured by lower lip retraction test; format: functional
Mus musculus [11] = organism: Mus musculus; experiment: Inhibitory concentration of compound was tested as agonist activity against DRN firing in the dorsal raphe nucleus; format: functional, organism-based
Mus musculus [12] = experiment: The in vivo compartmental activity was evaluated as minimum significant active dose measured by Forepaw treading test; format: functional
[13] = Inhibitory concentration of compound was tested as agonist activity against DRN serotonergic neurons firing in the dorsal raphe nucleus; format: functional, tissue-based, Rattus norvegicus
Mus musculus [14] = experiment: as §1; format: ADME, organism-based

| IC50 [1] [µM] | IC50 [3] [µM] | IC50 (D(2) dopamine receptor) [µM] | IC50 [5] [µM] | IC50 [6] [µM] | IC50 [7] [µM] | IC50 [9] [µM] | IC50 (D(1A) dopamine receptor) [µM] | IC50 (Mus musculus [11]) [µM] | SMILES | DDT msad (Mus musculus [2]) [mg/kg] | Punishment test msad (Mus musculus [4]) [mg/kg] | DLBT (Mus musculus [8]) [mg/kg] | LLR msad (Mus musculus [10]) [mg/kg] | FPT msad (Mus musculus [12]) [mg/kg] | IC50 [13] [µM] | Punishment test msad (Mus musculus [14]) [mg/kg] |
| --- | --- | --- | --- | --- | --- | --- | --- | --- | --- | --- | --- | --- | --- | --- | --- | --- |
| 0.0263 | 6 | 0.01 | 5 | 0.0002 | 10 | 1 | 40 |  | CCCN(CCCCN1C(=O)CC2(CCCC2)CC1=O)C1COc2cccc(OC)c2C1.O=C(O)C(=O)O (stereo in doubt; 9g) | 0.3 | 0.06 | 2 |  |  |  |  |
|  | 10 | 0.9 | 20 | 0.02 | 20 | 1 | 20 |  | COc1cccc2c1CC(NCCCCN1C(=O)CC3(CCCC3)CC1=O)CO2 (stereo not given) |  |  |  |  |  |  |  |
|  | 70 | 1 | > 1000 | 0.3 | 1000 | > 1000 | 100 |  | CCC[N+](C)(CCCCN1C(=O)CC2(CCCC2)CC1=O)C1COc2cccc(OC)c2C1 (stereo not given) |  |  |  |  |  |  |  |
|  | 3 | 0.1 | 9 | 0.0007 | 2 | 8 | 20 |  | CCCN(CCCCNS(=O)(=O)c1ccc(C)cc1)C1COc2cccc(OC)c2C1 (single isomer, unassigned; (+)) |  |  |  |  |  |  |  |
|  | 5 | 0.03 | 0.4 | 0.05 | 2 | 30 | 40 |  | CCCN(CCCCN1C(=O)c2ccccc2C1=O)C1COc2cccc(OC)c2C1 (stereo not given) |  |  |  |  |  |  |  |
|  | 5 | 0.003 | 30 | 0.001 | 4 | 2 | 60 |  | CCCN(CCCCN1CC2CCCC2C1=O)C1COc2cccc(OC)c2C1 (stereo not given) |  |  |  |  |  |  |  |
|  | 9 | 0.02 | 40 | 0.001 | 2 | 4 | 20 |  | CCCN(CCCON1C(=O)CC2(CCCC2)CC1=O)C1COc2cccc(OC)c2C1 (stereo not given) |  |  |  |  |  |  |  |
|  | 8 | 0.6 | 20 | 0.001 | 6 | 0.8 | 10 |  | CCCN(CCCN1C(=O)CC2(CCCC2)CC1=O)C1COc2cccc(OC)c2C1 (stereo not given) |  |  |  |  |  |  |  |
|  | 1000 | 5 | 7 | 0.09 | 4 | 0.6 | 30 |  | COc1cccc2c1CC(NCCCCN1C(=O)c3ccccc3C1=O)CO2 (stereo not given) |  |  |  |  |  |  |  |
| 0.248 | 20 | 0.01 | 6 | 0.002 | 0.02 | 5 | 20 | ~0.13 | CCCN(CCCCN1C(=O)CC2(CCCC2)CC1=O)C1COc2cccc(OC)c2C1.O=C(O)C(=O)O (single isomer, unassigned; (-)) | 3 | 1 | >2 | 8 | 32 |  |  |
| 0.0102 | 40 | 3 | 10 | 0.0003 | 0.02 | 3 | 40 | ~0.006 | CCCN(CCCCN1C(=O)CC2(CCCC2)CC1=O)C1COc2cccc(OC)c2C1.O=C(O)C(=O)O (single isomer, unassigned; (+)) | 0.1 | 0.03 | 1 | 4 | 8 |  |  |
|  | 1000 | 0.05 | > 1000 | 0.005 | 10 | 10 | 60 |  | CCCN(CCNS(=O)(=O)c1ccc(C)cc1)C1COc2cccc(OC)c2C1 (stereo in doubt; (-)-15b) |  |  |  |  |  |  |  |

| SMILES | IC50 [1] [µM] | IC50 [3] [µM] | IC50 (D(2) dopamine receptor) [µM] | IC50 [5] [µM] | IC50 [6] [µM] | IC50 [7] [µM] | IC50 [9] [µM] | IC50 (D(1A) dopamine receptor) [µM] | IC50 (Mus musculus [11]) [µM] | DDT msad (Mus musculus [2]) [mg/kg] | Punishment test msad (Mus musculus [4]) [mg/kg] | DLBT (Mus musculus [8]) [mg/kg] | LLR msad (Mus musculus [10]) [mg/kg] | FPT msad (Mus musculus [12]) [mg/kg] | IC50 [13] [µM] | Punishment test msad (Mus musculus [14]) [mg/kg] |
| --- | --- | --- | --- | --- | --- | --- | --- | --- | --- | --- | --- | --- | --- | --- | --- | --- |
| CCCN(CCC)C1CCc2cccc(O)c2C1 (stereo not given) [8-OH-DPAT] | ~0.008 | 30 | 0.8 |  |  | 1 | 49 | > 1000 |  |  |  |  |  |  | ~0.005 | 0.1 |
